Results taken from patent publication US8618178B2, “Method and substances for treating T-cell mediated autoimmune diseases” (Eberhard-Karls-Universitaet Tuebingen Universitaetsklinikum, priority 2006, dated 2013).
“Also recorded” adds a separate entry of the source. Where a name gives a salt, the structure may show the parent alone.

What was measured:
IL-12 = IL-12 production by DC, ELISA of culture supernatants; assay type: cell-based, mouse; details: after stimulation with LPS
Procedure: IL-4, IL-10, IL-12 and interferon-γ were determined using the ELISA (enzyme linked immunosorbent assay) set or with the use of individual components from BD BioSciences. IL-23 in the supernatant was determined using the ELISA set (eBioscience). For intracytoplasmic cytokine analyses, the T cells were restimulated with PMA/ionomycin or with APC and peptide in the presence of brefeldin A, then fixed and permeabilized and stained. For the surface staining, anti-CD4 or KJ1-26 antibodies were used; the cytokine antibodies (PE labeled) were all obtained from BD Pharmingen.
As antigen presenting cells (APC), T cell depleted spleen cells from syngenic mice were used. Dendritic cells (DC) which were obtained from bone marrow (BMDC) and cultured with GM-CSF were used for the relevant experiments on day 7 of culturing. For the experiment, in each case an equal number of APC were cultured either with the medium alone, with L-BSO (C8H18N2O3S, 0.5 mM), dimethyl sulfoxide DMSO(C2H6OS), dimethyl fumarate DMF (C6H8O4, dissolved in DMSO, 70 μM), or calcium monomethyl fumarate (MMF; CaC10H10O8, 200 μM). All substances except for MMF (Fumapharm) were purchased from Sigma-Aldrich. At the respective stated times (see below) the cells were either analyzed directly for their GSH content, […] 055.B5 (Sigma-Aldrich) or CpG-DNA 1668 (MWG Biotech) and IL-4 (Stratmann). In order to raise the GSH level again, 1 mM GSH-OEt (C12H21N3O6S; Sigma-Aldrich) or 1 mM NAC (Sigma-Aldrich) was added.

BMDC = test: Measurement of reactive oxygen species (ROS) in DC with dichlorofluorescein, flow cytometry; assay type: cell-based, mouse; details: dichlorofluorescein, flow cytometry
Procedure: For the measurement of reactive oxygen species (ROS) in DC and APC, the fluorescent dye 2′,7′ dichlorofluorescein (H2 DCFDA, Molecular Probes, Eugene, USA) was used. 5×10^5 DC were preincubated in 1 ml of RPMI medium (without mercaptoethanol) for 60 mins at 37° C. in the incubator with 1% DMSO or 10 μg/ml DMF+/−NAC (1 mM) or GSX (1 mM). After this preincubation, 1 μM/ml H2 DCFDA was added and the cells incubated for a further 30 mins at 37° C. Within one hour, the fluorescence produced was detected using flow cytometry (FL1).
As antigen presenting cells (APC), T cell depleted spleen cells from syngenic mice were used. Dendritic cells (DC) which were obtained from bone marrow (BMDC) and cultured with GM-CSF were used for the relevant experiments on day 7 of culturing. For the experiment, in each case an equal number of APC were cultured either with the medium alone, with L-BSO (C8H18N2O3S, 0.5 mM), dimethyl sulfoxide DMSO(C2H6OS), dimethyl fumarate DMF (C6H8O4, dissolved in DMSO, 70 μM), or calcium monomethyl fumarate (MMF; CaC10H10O8, 200 μM). All substances except for MMF (Fumapharm) were purchased from Sigma-Aldrich. At the respective stated times (see below) the cells were either analyzed directly for their GSH content, used for T cell stimulation or stimulated for […] with Escherichia coli lipopolysaccharides 055.B5 (Sigma-Aldrich) or CpG-DNA 1668 (MWG Biotech) and IL-4 (Stratmann). In order to raise the GSH level again, 1 mM GSH-OEt (C12H21N3O6S; Sigma-Aldrich) or 1 mM NAC (Sigma-Aldrich) was added.
For testing the potential of pharmaceutical substances to induce the ROS, the following procedure was developed: for the measurement of reactive oxygen species (ROS) in cells, the fluorescent dye 2′,7′ dichlorofluorescein (H2 DCFDA) is used. The absorption spectrum of the substance is 492-495 nm and the emission spectrum lies in the range between 517-527 nm. On induction of cell stress, e.g., by the administration of ROS-causing reagents, oxidation of the H2 DCFDA to DCFDA+H2 occurs. The fluorescence arising as a result can be detected using flow cytometry (FL1).

[1] = system: experimental autoimmune encephalomyelitis (EAE); test: Actively induced EAE in SJL mice, substance in the drinking water; assay type: in vivo; details: for course/severity of actively induced EAE: DMF 0.3 mg/ml or L-BSO 0.15 mg/ml in the drinking water; for survival of mice with actively induced EAE: substance in the drinking water
Procedure: Spleen and lymph node CD4^+ T cells were stimulated with PLP (proteolipid protein) peptide 139-151 (10 μg/ml) and stimulated for four days with irradiated SJL-APC in the presence or absence of L-BSO (0.5 mM, Sigma), expanded for three to four days and then restimulated for cytokine production (proteolipid protein is the commonest myelin protein in the central nervous system and plays an important part as an autoantigen in the onset of multiple sclerosis). Next, 10^7 sham (control) or L-BSO treated T cells were injected intraperitoneally into naive SJL mice and the EAE developing as a result was observed. […] Half of the group was fed daily for 14 days with DMF 0.3 mg/ml (Fluka) or L-BSO 0.15 mg/ml in the drinking water. For the cytokine analysis of PLP-specific T cells, the draining lymph nodes of the SJL mice were removed 6 days after the immunization and CD4^+ T cells antigen-specifically analyzed (ELISPOT). For this, ELISPOT plates (Millipore Corporation) were coated with anti-IFN-γ or anti-IL-4 antibodies overnight at 4° C., blocked after 12 hrs with PBS/10% FCS and, after the solution had been poured off, the isolated T lymphocytes were incubated with APC and medium alone or in the presence of PLP peptide. After the incubation time, the cells were poured off, and the plates washed with PBS/Tween and incubated with biotin-conjugated secondary antibodies. After further washing procedures and incubation with streptavidin-alkaline phosphatase (Boehringer), the plates were incubated with developer solution. After washing with H2O, the number of spots was determined in the ELISPOT reader (Biosys).
In order further to study whether GSH deprivation can also influence the differentiation and pathogenicity of autoreactive T cells in vivo, mice were fed with DMF or L-BSO in the drinking water, and the control group only with drinking water. Active EAE induction was effected on day 10 with PLP peptide in complete Freund's adjuvant (CFA) and pertussis toxin. The mice were examined daily regarding the course of the artificially triggered disease. Through the administration of L-BSO or DMF, the GSH levels in lymphoid organs and in the brain of immunized mice could be lowered (not shown). […] 6 days after immunization, the draining lymph nodes of the mice were analyzed. For this, the CD4^+ T cells were isolated and the cytokine production of PLP-specific T cells measured using ELISPOT after in vitro stimulation.

Row | Structure (SMILES) | IL-12 production by DC (IL-12) | intracellular ROS in DC (BMDC) | course/severity of actively induced EAE [1] | survival of mice with actively induced EAE [1]
1 | COC(=O)/C=C/C(=O)[O-].[Ca+] [MMF, calcium monomethyl fumarate] | strong suppression of IL-12 production; also recorded: markedly decreased capacity to produce IL-12 | induces ROS |  | 
2 | CCCCS(=N)(=O)CCC(N)C(=O)O [L-BSO, L-buthionine sulfoximine] | strong suppression of IL-12 production; also recorded: markedly decreased capacity to produce IL-12 | rise in intracellular ROS | markedly milder EAE; also recorded: markedly improved; also recorded: protects actively immunized mice against the onset of severe encephalomyelitis | all mice survived
3 | COC(=O)/C=C/C(=O)OC [DMF, dimethyl fumarate] | strong suppression of IL-12 production; also recorded: markedly less; also recorded: markedly decreased capacity to produce IL-12 | rise in ROS | markedly milder EAE; also recorded: protects actively immunized mice against the onset of severe encephalomyelitis | all mice survived
